Results from patent US20120004282A1, “RNA Interference Mediated Inhibition of the Intercellular Adhesion Molecule 1 (ICAM-1) Gene Expression Using Short Interfering Nucleic Acid (siNA)” (Merck Sharp & Dohme Corp,, priority 2009, published 2012).
[invAb] = inverted abasic unit; m = 2'-O-methyl; r = 2'-OH (RNA); f = 2'-fluoro

Tests used:
ICAM-1 mRNA = ICAM-1 mRNA knock-down in transfected Calu-1 cells (Taqman RT-PCR); assay type: cell-based, human; details: for % KD Human: Calu-1 cells, 10 nM siNA, 24 hrs post-transfection, relative to non-targeting control; for % KD Human / % KD ICAM-1 10 nM / % KD at 10 nM / Max % KD in DRC: mean ± S.D.; for IC50: ICAM-1 mRNA knockdown, 12 concentrations 0.083 fM to 30 nM; for IC50 / % KD at 10 nM / Max % KD in DRC: human cells; for % KD ICAM-1 10 nM / % KD at 10 nM / Max % KD in DRC: ICAM-1 mRNA; for % KD ICAM-1 10 nM: three independent experiments; for % KD at 10 nM: three separate experiments; for Max % KD in DRC: dose response 0.083 fM to 30 nM
[1] = test system: human ICAM-2 mRNA transcript; experiment: ICAM-2 mRNA specificity screen in human cells (Taqman RT-PCR); assay type: cell-based; details: mean ± S.D., three independent experiments
Protocol: Calu-1 (human; ATCC cat# HTB-54): Cells were cultured at 37° C. in the presence of 5% CO2 and grown in McCoy's 5a medium supplemented with fetal bovine serum at a final concentration of 10% and 100 μg/mL of streptomycin and 100 U/mL penicillin.
Calu-1 cells were plated in all wells of a tissue-culture treated, 96-well plate at final counts of 5,000 cells/well in 100 μL of appropriate culture media. Cells were cultured for 24 hours after plating at 37° C. in the presence of 5% CO2.
After 24 hours, complexes containing siNA and RNAiMax were created as follows. A solution of RNAiMax diluted 33-fold in OPTI-MEM was prepared. In parallel, solutions of the siNAs for testing were prepared to a final concentration of 120 nM in OPTI-MEM. After incubation of RNAiMax/OPTI-MEM solution at room temperature for 5 min, an equal volume of the siNA solution and the RNAiMax solution were added together for each of the siNAs. […] This solution was incubated at room temperature for 20 minutes. After incubation, 20 uL of the solution was added to each of the relevant wells. The final concentration of siNA in each well was 10 nM and the final volume of RNAiMax in each well was 0.3 uL.
A series of probes and primers were used to detect the various mRNA transcripts of the genes of ICAM-1 and ICAM-2 in human cell lines (see Table 2). All the Taqman probes and primers for the experiments here-in described were supplied as pre-validated sets by Applied Biosystems, Inc., (see Table 2). The assays were performed on an ABI 7900 instrument, according to the manufacturer's instructions.
A TaqMan Gene Expression Master Mix (provided in the Cells-to-CT™, Applied Biosystems, Cat # 4399002) was used. The PCR reactions were carried out at 50° C. for 2 min, 95° C. for 20 min followed by 40 cycles at 95° C. for 15 secs and 60° C. for 1 min.
The expression level of the gene of interest and % knock-down was calculated using Comparative Ct method: […]
The non-targeting control siNA was, unless otherwise indicated, chosen as the value against which to calculate the % knock-down, because it is the most relevant control.
The specificity the six siNAs in Table 4 was also assessed. The siNAs were tested at 1 nM concentration to determine the effect of the ICAM-1 siNAs on the mRNA transcript of human ICAM-2.

OAS1 mRNA = experiment: Membrane and endosomal TLR3 mediated immunostimulation, OAS1 mRNA increase in Calu 1 cells; assay type: cell-based, human; details: Up to 100 nM
Protocol: Human lung epithelial carcinoma (Calu-1) cells were grown at 37 degrees in the presence of 5% CO2 and cultured in […] supplemented with 10% fetal bovine serum, glutamine and antibiotics.
A series of probes and primers were used for the detection of mRNA transcripts of ICAM-1, OAS1, and GAPDH (as control/normalisation) in the human cell lines. The assays were performed on an ABI 7900HT instrument according to the manufacturer's instructions.
With TaqMan data, critical threshold values (Ct) were converted to copy numbers corresponding to the particular gene analysed in each well of the 384 well plate. Six identical wells were prepared in each plate for a given treatment. […] Determination of the percentage coefficient of variation (CV) (% C.V.=[standard deviation/average]*100) allowed the omitting of wells whose value was an outlier (so that % C.V.<25). Relative abundance (aka relative expression) of a gene was determined by dividing the mean copy number of that gene with its GAPDH counterpart in that particular sample.
Calu-1 or NHBE cell were treated as above in Example 2 and used for the measurement of endosomal TLR3 mediated immunostimulation, with the inclusion of polyI:C as a positive control for OAS1 mRNA upregulation. For the measurement of membrane bound TLR3 mediated immunostimulation the Calu 1 cells were cultured at 12000 cells/per 96 well and siNAs administered in PBS in the absence of a delivery vehicle at a concentration of 100 nM, 30 nM, 10 nM, 3 nM, 1 nM, and 0.3 nM.

Substance	% KD Human (ICAM-1 mRNA) [%]	IC50 (ICAM-1 mRNA) [nM]	% KD ICAM-1 10 nM (ICAM-1 mRNA) [%]	% KD at 10 nM (ICAM-1 mRNA) [%]	Max % KD in DRC (ICAM-1 mRNA) [%]	% KD ICAM-2 1 nM [1] [%]	Membrane & Endosomal TLR3 mediated Immunostimulation OAS1 mRNA increase Calu 1 Cells (OAS1 mRNA)
48722-DC: siNA duplex, ICAM-1 target site 2240 (h); sense B GAcAuAcAAcuGGGAAAuA TTB; antisense UAUuucccAGuuGuAuGucUU (sense GACAUACAACUGGGAAAUATT; antisense UAUUUCCCAGUUGUAUGUCUU; sense: DNA at AGT, 2'-fluoro at CU, [invAb] at 5' end, 3' end, backbone not given here; antisense: sugars from the 5' end rrrfffffmmffmfmfmffmm, backbone not given here)	92 ± 1	0.098 ± 0.05	92 ± 1	92 ± 1	85 ± 1	−15 ± 29	No significant effect
29282-DC: siNA duplex, ICAM-1 target site 2113 (h); sense B cGcAucuGAucuGuAGucA TTB; antisense UGAcuAcAGAucAGAuGcGUU (sense CGCAUCUGAUCUGUAGUCATT; antisense UGACUACAGAUCAGAUGCGUU; sense: DNA at AGT, 2'-fluoro at CU, [invAb] at 5' end, 3' end, backbone not given here; antisense: sugars from the 5' end rrrffmfmmmffmmmfmfmmm, backbone not given here)	95 ± 2	0.086 ± 0.047	95 ± 2	95 ± 2	88 ± 4	3 ± 6	No significant effect
29284-DC: siNA duplex, ICAM-1 target site 1141 (h); sense B cucAGucAGuGuGAccGcA TTB; antisense UGCGGucAcAcuGAcuGAGUU (sense CUCAGUCAGUGUGACCGCATT; antisense UGCGGUCACACUGACUGAGUU; sense: DNA at AGT, 2'-fluoro at CU, [invAb] at 5' end, 3' end, backbone not given here; antisense: sugars from the 5' end rrrmmffmfmffmmffmmmmm, backbone not given here)	85 ± 1	0.281 ± 0.233	85 ± 1	85 ± 1	73 ± 4	6 ± 11	No significant effect
29288-DC: siNA duplex, ICAM-1 target site 2046 (h); sense B cAuuGuccucAGucAGAuA TTB; antisense UAUcuGAcuGAGGAcAAuGUU (sense CAUUGUCCUCAGUCAGAUATT; antisense UAUCUGACUGAGGACAAUGUU; sense: DNA at AGT, 2'-fluoro at CU, [invAb] at 5' end, 3' end, backbone not given here; antisense: sugars from the 5' end rrrffmmffmmmmrfmmfmmm, backbone not given here)	86 ± 3	0.215 ± 0.129	86 ± 3	86 ± 3	78 ± 5	−9 ± 18	No significant effect
29285-DC: siNA duplex, ICAM-1 target site 537 (h); sense B GGAAcAAccGGAAGGuGuA TTB; antisense UACAccuuccGGuuGuuccUU (sense GGAACAACCGGAAGGUGUATT; antisense UACACCUUCCGGUUGUUCCUU; sense: DNA at AGT, 2'-fluoro at CU, [invAb] at 5' end, 3' end, backbone not given here; antisense: sugars from the 5' end rrrmffffffmmffmffffmm, backbone not given here)	85 ± 6	0.394	85 ± 6	85 ± 6	70 ± 15	11 ± 7	No significant effect
29286-DC: siNA duplex, ICAM-1 target site 1838 (h); sense B cGGAAGAucAAGAAAuAcA TTB; antisense UGUAuuucuuGAucuuccGUU (sense CGGAAGAUCAAGAAAUACATT; antisense UGUAUUUCUUGAUCUUCCGUU; sense: DNA at AGT, 2'-fluoro at CU, [invAb] at 5' end, 3' end, backbone not given here; antisense: sugars from the 5' end rrrmffffffmmffffffmmm, backbone not given here)	89 ± 3	0.433 ± 0.468	89 ± 3	89 ± 3	81 ± 6	−3 ± 14	No significant effect
